Tests used:
Format in all cases: in vivo
[1] = test system: pigweed (Amaranthus retroflexus); assay: Test C greenhouse herbicide test, pre- and postemergence
Summary of the method: (§1)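 Each species was treated both before emergence, in a loam–sand soil mix, and after emergence, as 1- to 4-leaf seedlings in peat-based potting medium. Plants stayed in the greenhouse 13 to 15 d, then were scored from 0 (no effect) to 100 (complete control) relative to controls.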

corn (Zea mays) = assay: as above
Summary of the method: as §1

[2] = test system: oilseed rape (Brassica napus); assay: as above
Summary of the method: as §1

[3] = test system: ragweed (common ragweed, Ambrosia elatior); assay: as above
Summary of the method: as §1

[4] = test system: crabgrass, large (large crabgrass, Digitaria sanguinalis); assay: as above
Summary of the method: as §1

[5] = test system: waterhemp (common waterhemp, Amaranthus rudis); assay: as above
Summary of the method: as §1

[6] = test system: johnsongrass (Sorghum halepense); assay: as above
Summary of the method: as §1

[7] = test system: lambsquarters (Chenopodium album); assay: as above
Summary of the method: as §1

[8] = test system: foxtail, giant (giant foxtail, Setaria faberii); assay: as above
Summary of the method: as §1

soybean (Glycine max) = assay: as above
Summary of the method: as §1

[9] = test system: ryegrass, Italian (Italian ryegrass, Lolium multiflorum); assay: as above
Summary of the method: as §1

[10] = test system: blackgrass (Alopecurus myosuroides); assay: as above
Summary of the method: as §1

[11] = test system: morningglory (Ipomoea coccinea); assay: as above
Summary of the method: as §1

[12] = test system: nutsedge, yellow (yellow nutsedge, Cyperus esculentus); assay: as above
Summary of the method: as §1

[13] = test system: wheat (winter wheat, Triticum aestivum); assay: as above
Summary of the method: as §1

kochia (Kochia scoparia) = assay: Test C greenhouse herbicide test, postemergence
Summary of the method: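 Greenhouse postemergence spray on plants 2–18 cm tall; response judged visually after 13–15 d relative to untreated controls using a 0 (none) to 100 (full control) scale.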

[14] = Postemergence, 31 g ai/ha, 0 to 100 scale (0 no effect, 100 complete control)
[15] = Postemergence, 125 g ai/ha, scale 0 to 100, 0 is no effect, 100 is complete control
[16] = Postemergence, 250 g ai/ha, scale 0 to 100, 0 no effect, 100 complete control, 13 to 15 d
[17] = Preemergence, 31 g ai/ha, scale 0 to 100, 0 is no effect, 100 is complete control
[18] = Preemergence, 62 g ai/ha, scale 0 to 100, 0 is no effect, 100 is complete control
[19] = Preemergence, 125 g ai/ha, scale 0 to 100, 0 is no effect, 100 is complete control
[20] = Preemergence, 250 g ai/ha, scale 0 to 100 (0 no effect, 100 complete control)
[21] = postemergence, 62 g ai/ha, scale 0 to 100, 0 no effect, 100 complete control

## CCC(=O)Oc1c(C)nn(C)c(=O)c1-c1c(C)sc2c(C)cc(C)cc12 [Compound 28]
[1]; [14]
  Pigweed plant response rating: 60
[1]; [15]
  Plant response rating, Pigweed: 90
[1]; [16]
  Plant response rating, Pigweed: 90
[1]; [17]
  Plant response rating, Pigweed: 100
[1]; [18]
  Plant response rating, Pigweed: 100
[1]; [19]
  Plant response rating, Pigweed: 100
[1]; [20]
  Pigweed plant response rating: 100
[1]; [21]
  Pigweed plant response rating: 85
Corn (Zea mays); [14]
  Corn plant response rating: 5
Corn (Zea mays); [15]
  Plant response rating, Corn: 5
Corn (Zea mays); [16]
  Plant response rating, Corn: 15
Corn (Zea mays); [17]
  Plant response rating, Corn: 0
Corn (Zea mays); [18]
  Plant response rating, Corn: 0
Corn (Zea mays); [19]
  Plant response rating, Corn: 30
Corn (Zea mays); [20]
  Corn plant response rating: 15
Corn (Zea mays); [21]
  Corn plant response rating: 5
[2]; [14]
  Oilseed Rape plant response rating: 5
[2]; [15]
  Plant response rating, Oilseed Rape: 5
[2]; [16]
  Plant response rating, Oilseed Rape: 70
[2]; [17]
  Plant response rating, Oilseed Rape: 0
[2]; [18]
  Plant response rating, Oilseed Rape: 20
[2]; [19]
  Plant response rating, Oilseed Rape: 85
[2]; [20]
  Oilseed Rape plant response rating: 90
[2]; [21]
  Oilseed Rape plant response rating: 60
[3]; [14]
  Ragweed plant response rating: 65
[3]; [15]
  Plant response rating, Ragweed: 85
[3]; [16]
  Plant response rating, Ragweed: 90
[3]; [17]
  Plant response rating, Ragweed: 70
[3]; [18]
  Plant response rating, Ragweed: 90
[3]; [19]
  Plant response rating, Ragweed: 95
[3]; [20]
  Ragweed plant response rating: 90
[3]; [21]
  Ragweed plant response rating: 75
[4]; [14]
  Crabgrass, Large plant response rating: 25
[4]; [15]
  Plant response rating, Crabgrass, Large: 40
[4]; [16]
  Plant response rating, Crabgrass, Large: 45
[4]; [17]
  Plant response rating, Crabgrass, Large: 25
[4]; [18]
  Plant response rating, Crabgrass, Large: 60
[4]; [19]
  Plant response rating, Crabgrass, Large: 80
[4]; [20]
  Crabgrass, Large plant response rating: 85
[4]; [21]
  Crabgrass, Large plant response rating: 20
[5]; [14]
  Waterhemp plant response rating: 60
[5]; [15]
  Plant response rating, Waterhemp: 85
[5]; [16]
  Plant response rating, Waterhemp: 85
[5]; [18]
  Plant response rating, Waterhemp: 75
[5]; [19]
  Plant response rating, Waterhemp: 85
[5]; [20]
  Waterhemp plant response rating: 100
[5]; [21]
  Waterhemp plant response rating: 75
[6]; [14]
  Johnsongrass plant response rating: 5
[6]; [16]
  Plant response rating, Johnsongrass: 30
[6]; [17]
  Plant response rating, Johnsongrass: 0
[6]; [18]
  Plant response rating, Johnsongrass: 0
[6]; [19]
  Plant response rating, Johnsongrass: 5
[6]; [20]
  Johnsongrass plant response rating: 10
[6]; [21]
  Johnsongrass plant response rating: 5
[7]; [14]
  Lambsquarters plant response rating: 85
[7]; [15]
  Plant response rating, Lambsquarters: 100
[7]; [16]
  Plant response rating, Lambsquarters: 100
[7]; [17]
  Plant response rating, Lambsquarters: 65
[7]; [18]
  Plant response rating, Lambsquarters: 85
[7]; [19]
  Plant response rating, Lambsquarters: 85
[7]; [20]
  Lambsquarters plant response rating: 90
[7]; [21]
  Lambsquarters plant response rating: 98
[8]; [14]
  Foxtail, Giant plant response rating: 60
[8]; [15]
  Plant response rating, Foxtail, Giant: 85
[8]; [16]
  Plant response rating, Foxtail, Giant: 95
[8]; [17]
  Plant response rating, Foxtail, Giant: 85
[8]; [18]
  Plant response rating, Foxtail, Giant: 100
[8]; [19]
  Plant response rating, Foxtail, Giant: 100
[8]; [20]
  Foxtail, Giant plant response rating: 100
[8]; [21]
  Foxtail, Giant plant response rating: 80
Soybean (Glycine max); [14]
  Soybean plant response rating: 0
Soybean (Glycine max); [15]
  Plant response rating, Soybean: 0
Soybean (Glycine max); [16]
  Plant response rating, Soybean: 5
Soybean (Glycine max); [18]
  Plant response rating, Soybean: 25
Soybean (Glycine max); [19]
  Plant response rating, Soybean: 0
Soybean (Glycine max); [20]
  Soybean plant response rating: 50
Soybean (Glycine max); [21]
  Soybean plant response rating: 0
[9]; [14]
  Ryegrass, Italian plant response rating: 80
[9]; [15]
  Plant response rating, Ryegrass, Italian: 90
[9]; [16]
  Plant response rating, Ryegrass, Italian: 95
[9]; [17]
  Plant response rating, Ryegrass, Italian: 85
[9]; [18]
  Plant response rating, Ryegrass, Italian: 90
[9]; [19]
  Plant response rating, Ryegrass, Italian: 95
[9]; [20]
  Ryegrass, Italian plant response rating: 95
[9]; [21]
  Ryegrass, Italian plant response rating: 85
[10]; [14]
  Blackgrass plant response rating: 50
[10]; [15]
  Plant response rating, Blackgrass: 80
[10]; [16]
  Plant response rating, Blackgrass: 90
[10]; [17]
  Plant response rating, Blackgrass: 85
[10]; [18]
  Plant response rating, Blackgrass: 90
[10]; [19]
  Plant response rating, Blackgrass: 90
[10]; [20]
  Blackgrass plant response rating: 90
[10]; [21]
  Blackgrass plant response rating: 70
[11]; [14]
  Morningglory plant response rating: 95
[11]; [15]
  Plant response rating, Morningglory: 100
[11]; [16]
  Plant response rating, Morningglory: 100
[11]; [17]
  Plant response rating, Morningglory: 80
[11]; [18]
  Plant response rating, Morningglory: 98
[11]; [19]
  Plant response rating, Morningglory: 98
[11]; [20]
  Morningglory plant response rating: 100
[11]; [21]
  Morningglory plant response rating: 98
[12]; [14]
  Nutsedge, Yellow plant response rating: 75
[12]; [15]
  Plant response rating, Nutsedge, Yellow: 85
[12]; [16]
  Plant response rating, Nutsedge, Yellow: 90
[12]; [17]
  Plant response rating, Nutsedge, Yellow: 50
[12]; [18]
  Plant response rating, Nutsedge, Yellow: 75
[12]; [19]
  Plant response rating, Nutsedge, Yellow: 85
[12]; [20]
  Nutsedge, Yellow plant response rating: 70
[12]; [21]
  Nutsedge, Yellow plant response rating: 85
[13]; [14]
  Wheat plant response rating: 0
[13]; [15]
  Plant response rating, Wheat: 0
[13]; [16]
  Plant response rating, Wheat: 5
[13]; [18]
  Plant response rating, Wheat: 0
[13]; [19]
  Plant response rating, Wheat: 0
[13]; [20]
  Wheat plant response rating: 10
[13]; [21]
  Wheat plant response rating: 0
Kochia (Kochia scoparia); [14]
  Kochia plant response rating: 70
Kochia (Kochia scoparia); [15]
  Plant response rating, Kochia: 95
Kochia (Kochia scoparia); [16]
  Plant response rating, Kochia: 100
Kochia (Kochia scoparia); [21]
  Kochia plant response rating: 70
